Assay type in all cases: physicochemical
Series [1] in a line: Spectrophotometric pH-metric titrations of Ga^3+:ligand systems (stability constants, pGa, speciation). Particulars: for logK11 apparent formation constant (Ga^3+, M:L 1:1) / logK12 apparent formation constant (Ga^3+, M:L 1:2) / logK13 apparent formation constant (Ga^3+, M:L 1:3): estimated from logβMLH; for pGa (−log[Ga^3+]free): [Ga^3+]total = 1 μM, [L]total = 10 μM, pH 7.4, 25 °C; for Prevailing Species (pH 5.5) / Prevailing Species (pH 7.4): Ga^3+ complex species; for Prevailing Species (pH 7.4): ** possible formation of gallium hydroxide species. Here is the method: (§1) UV–visible spectra were recorded with a JASCO V-570 UV/Vis/NIR spectrophotometer at 298 K in the 250–600 nm spectral range employing quartz cells (1 cm optical path). To perform spectrophotometric titrations, ligands (denoted generally as L in the following) were dissolved in methanol to give a mother solution (2.50 mM), that was then diluted in water in order to obtain a final concentration of 50 μM. The metal/ligand (M:L) solutions were obtained by adding appropriate quantities of Ga(NO3)3 as methanol solutions (5–10 mM) in order to obtain the metal-to-ligand 1:1 molar ratio (L = 50 μM and V = 25 mL). For both L and M:L systems, pH (initial value of about 5) was varied by adding small amounts (<1 μL) of concentrated NaOH (4 M) up to ca. pH 11, thus to consider volume variations negligible. To evaluate the complexation ratio, constant additions of the M solution (10 µL each time, M = 10^–2 M) were dropped into the ligand solution (V = 25 mL, L = 50 μM) using a micropipette in order to reach different M:L molar ratios. A constant ionic strength (NaNO3, 0.1 M) was maintained in all experiments. Spectrophotometric investigations of iron(III) systems were performed in the same conditions; the Fe^3+ solution was freshly prepared in methanol starting from Fe(NO3)3·9H2O. The overall protonation constants (logβqr) and the overall stability constants of metal complexes (logβpqr) were evaluated from spectrophotometric data. The stability constants (βpqr), defined by the following equations:(3) pM^m++qL^l^−+rH^+⇌MpLqHr(mp−lq+r) (4) βpqr=[MpLqHr(mp−lq+r)]/[M^m+]^p·[L^l−]^q·[H^+]^r where L is the ligand in the completely dissociated form and H is proton, were refined using least-squares calculation in HypSpec. The results of least-squares calculation include the standard deviations and correlation coefficients of the refined parameters. The quantities are obtained by performing error propagation calculation from the experimental errors onto the parameters. The stability constant refinement furnishes least-squares estimates of the standard deviation, σ, of the stability constant β. The error on logβ is calculated as follows: σ(logβ) = [log(β + σ) − log(β − σ)]/2.
Hydroxide species, such as [Ga(OH)2]^+, were taken into account for calculations. The hydrolysis constants for Ga^3+ are as follows: logβ1,1,0 = −3.93; logβ2,1,0 = −7.73; logβ3,1,0 = −12.38; logβ4,1,0 = −15.96; logβ32,13,0 = −66.3; logβ3,1,0(s) = −3.54 [43]; pGa is defined as (−log[Ga^3+]free) and is calculated at specific conditions (Ga^3+total = 1 μM, Ltotal = 10 μM, pH 7.4, 25 °C). For the calculation of the iron(III) overall stability constants, the presence of [Fe(OH)]^2+, [Fe(OH)2]^+ and [Fe(OH)3] species was taken into account.

A short description of series [2]: Spectrophotometric pH titrations of ligands (protonation constants, pKa). Particulars: for logβ011 overall protonation constant / logβ012 overall protonation constant / logβ013 overall protonation constant / logβ014 overall protonation constant: HypSpec, spectrophotometric data; for pKa: aqueous solution (methanol stock diluted in water); for prevailing charge form at physiological pH (7.4): pH 7.4, species distribution. Here is the method:
as §1

The nature of series [3]: Keto-enol/diketo tautomer amounts by 1H NMR. The settings on record: molar percentage, MeOD-d4, 298 K; for KE (%) amount of keto–enol form: for 2 includes KE form of the Z isomer (6%). Here is the method: NMR spectra were recorded by means of a Bruker Biospin FT-NMR AVANCE III HD (600 MHz) spectrometer equipped with a CryoProbe BBO H&F 5 mm in inverse detection. The nominal frequencies were 150.90 MHz for ^13C and 600.13 MHz for ^1H, respectively. For each sample, 1–5 mg were weighed and diluted up to 0.6 mL with a proper solvent in a 5 mm NMR tube; 90° pulse was calibrated for each sample, and standard NMR parameters were used to achieve quantitative results (relaxation delay, 10 s). Proton and carbon chemical shifts are given in parts per million (ppm) versus external TMS and were determined by reference to the solvent residual signals. Typical 2D homo- and heteronuclear techniques were used for assignment, i.e., ^1H,^1H COSY, ^1H,^13C HSQC, ^1H,^13C HMBC. NMR investigations of Ga^3+:L systems were performed in MeOD-d4 by adding small amounts of a Ga(NO3)3 solution (10 μL each) to 1 mM ligand solution (0.6 mL) until reaching the desired metal-to-ligand molar ratio. The complexation reaction is fast, and spectra were registered few minutes after the addition. Two-dimensional ^1H,^13C heteronuclear multiple bond correlation (HMBC) experiments (hmbcgpndqf in Bruker library) were performed via heteronuclear zero and double quantum coherence, optimized on long-range couplings (^3/4JHC = 8 Hz), with no decoupling during acquisition, and gradient pulses were used for selection. The relative percentages of the isomeric forms were estimated on the basis of the NMR data. Particularly, ^1H NMR spectra were acquired in quantitative conditions being D1 (relaxation delay) at least five times the T1 of the slowest relaxing signal of interest. The raw data were Fourier-transformed, and then the processing was performed by zero filling (SI = TD), line broadening (lb 0.3 Hz), accurate phasing and correcting the baseline. The most isolated signals were selected for integration, i.e., the vinyl protons (H-3 and H-4), and an average of the integrated area (A) of H-3 and H-4 was used for relative quantitation, according to the following equation: %Tautomeri=(A(H−3)i+(A(H−4)i)/2/∑i(A(H−3)i+(A(H−4)i)/2×100

Series [4] is described as follows: Kinetic stability of ligands in simulated physiological conditions (UV-Vis). The settings on record: for Stability: percentage of the residual ligand after 4 h: PBS, pH 7.4, 37 °C in darkness; for Stability ranking (residual ligand after 4 h): rank among the 7 ligands, 1 = most stable. Here is the method:
The chemical stability of ligands and metal complexes at the M:L 1:L molar ratio at 37 °C in darkness was evaluated by UV−Vis spectroscopy as a change in absorbance in the 250−600 nm range over an overall period of 8 h. Solutions (5.0 × 10^–5 mol L^–1) of the ligands were prepared in 0.1 mol L^–1 phosphate-buffered solution (PBS) at pH 7.4. Spectra were recorded every 30 min. All profiles were linearized as the hyperbolic function defined by Equation (2), which represents an empirical model that describes drug decomposition or release well [42]:(2) t/f%=at+b where f% is the percentage of the residual compound at time t (min) referred to the starting concentration at time zero determined by reading the absorbance at λmax.

The mark [5] stands for this setting: 298 K, calculated from logβ values, * = keto–enol moiety dissociation, read-out: pKa1.
The mark [6] stands for this setting: 298 K, calculated from logβ values, * = keto–enol moiety dissociation, read-out: pKa2.
Where [7] appears, read: 298 K, calculated from logβ values, * = keto–enol moiety dissociation, read-out: pKa3.
Setting [8] is: 298 K, calculated from logβ values, read-out: pKa4.
The mark [9] stands for this setting: 298 K, calculated from logβ values, * = keto–enol moiety dissociation.

Read-outs that look alike come from different tables or passages of the source. Marks after values point to notes of the source that are not given here.

Here are results for four molecules from publication PMC9321647, “Curcumin-Based β-Diketo Ligands for Ga^3+: Thermodynamic Investigation of Potential Metal-Based Drugs” (Pharmaceuticals, 2022).

As for `O=C(O)CCC(C(=O)/C=C/c1ccc(O)cc1)C(=O)/C=C/c1ccc(O)cc1` [Compound 6, (6E)-7-(4-hydroxyphenyl)-4-[(2E)-3-(4-hydroxyphenyl)prop-2-enoyl]-5-oxohept-6-enoic acid], in series [1] (298 K, HypSpec), the “log β 112 overall stability constant (Ga^3+)” value is given as 27.79 (5) and the “log β 113 overall stability constant (Ga^3+)” value is 34.09 (5). Further, the “logK11 apparent formation constant (Ga^3+, M:L 1:1)” value (“logK11 apparent formation constant” below) in series [1] (298 K) is listed as 6.67. In series [1], the “pGa (−log[Ga^3+]free)” value turned out to be 14.0. Also, in series [2] (298 K), the “logβ011 overall protonation constant” value is reported as 11.42 (2), the “logβ012 overall protonation constant” value was 21.12 (6), the “logβ013 overall protonation constant” value is listed as 29.76 (7) and the “logβ014 overall protonation constant” value is 34.62 (5). Moreover, in series [2] (setting [5]), the pKa is ~5. In addition, in series [2] (setting [6]), the pKa was 8.64. Besides, the pKa in series [2] (setting [7]) is 9.7. The pKa in series [2] (setting [8]) is 11.4. The “prevailing charge form at physiological pH (7.4)” value in series [2] is reported as “negatively charged”. Besides, in series [3], the “KK (%) amount of diketo form” value came to 75% and the “KE (%) amount of keto–enol form” value worked out at 25%. Besides, in series [4], the “Stability: percentage of the residual ligand after 4 h” value is reported as 73% and the “Stability ranking (residual ligand after 4 h)” value is 4.
Turning to `COc1cc(/C=C/C(O)=C/C(C)=O)ccc1OCCCBr` [Compound 2, (3Z,5E)-6-[4-(3-bromopropoxy)-3-methoxyphenyl]-4-hydroxyhexa-3,5-dien-2-one], in series [1] (298 K, HypSpec), the “log β 110 overall stability constant (Ga^3+)” value is reported as 8.129 (9), the “log β 120 overall stability constant (Ga^3+)” value is listed as 15.185 (4) and the “log β 130 overall stability constant (Ga^3+)” value is reported as 20.45 (3). Moreover, in series [1] (298 K), the “logK11 apparent formation constant” value is listed as 8.129 (9); the “logK12 apparent formation constant (Ga^3+, M:L 1:2)” value is 15.185; the “logK13 apparent formation constant (Ga^3+, M:L 1:3)” value is given as 20.45. In series [1], the “Prevailing Species (pH 5.5)” value is “[Ga(L)3]”, the “Prevailing Species (pH 7.4)” value was “[Ga(L)3]” and the “pGa (−log[Ga^3+]free)” value is on record as 13.1. Moreover, the “logβ011 overall protonation constant” value in series [2] (298 K) is 10.903 (8). For the same molecule, the pKa in series [2] (setting [5]) is 10.9. In series [3], the “KK (%) amount of diketo form” value was 12% and the “KE (%) amount of keto–enol form” value is recorded as 88 * %. Moreover, in series [4], the “Stability: percentage of the residual ligand after 4 h” value was 83% and the “Stability ranking (residual ligand after 4 h)” value is reported as 1.
As for `COc1cc(/C=C/C(=O)C(CCC(=O)O)C(=O)/C=C/c2ccc(O)c(OC)c2)ccc1O` [Compound 7, (6E)-7-(3-methoxy-4-hydroxyphenyl)-4-[(2E)-3-(3-methoxy-4-hydroxyphenyl)prop-2-enoyl]-5-oxohept-6-enoic acid], in series [1] (298 K, HypSpec), the “log β 112 overall stability constant (Ga^3+)” value is 28.29 (5) and the “log β 113 overall stability constant (Ga^3+)” value is reported as 36.51 (6). Moreover, in series [1] (298 K), the “logK11 apparent formation constant” value is 6.68. In series [1], the “Prevailing Species (pH 5.5)” value was “[Ga(H2L)2]^+”, the “Prevailing Species (pH 7.4)” value was “[Ga(H2L)2]^+ **” and the “pGa (−log[Ga^3+]free)” value was found to be 15.3. Besides, in series [2] (298 K), the “logβ011 overall protonation constant” value is reported as 12.22 (2), the “logβ012 overall protonation constant” value is given as 21.61 (5), the “logβ013 overall protonation constant” value is 29.98 (4) and the “logβ014 overall protonation constant” value is reported as 34.92 (9). Also, the pKa in series [2] (setting [5]) is ~5. For the same molecule, the pKa in series [2] (setting [6]) was 8.37. Further, the pKa in series [2] (setting [7]) is 9.39. The pKa in series [2] (setting [8]) is 12.2. Besides, the “prevailing charge form at physiological pH (7.4)” value in series [2] was “negatively charged”. Moreover, in series [3], the “KK (%) amount of diketo form” value stood at 75% and the “KE (%) amount of keto–enol form” value is 25%. Moreover, in series [4], the “Stability: percentage of the residual ligand after 4 h” value is on record as 79% and the “Stability ranking (residual ligand after 4 h)” value is given as 2.
Regarding “(3Z,5E)-4-hydroxy-6-(3-methoxy-4-methylphenyl)hexa-3,5-dien-2-one [Compound 1]”, in series [1] (298 K, HypSpec), the “log β 110 overall stability constant (Ga^3+)” value is recorded as 11.78 (4), the “log β 111 overall stability constant (Ga^3+)” value is given as 17.59 (3), the “log β 120 overall stability constant (Ga^3+)” value was 20.30 (5) and the “log β 122 overall stability constant (Ga^3+)” value is on record as 34.77(3). Further, in series [1] (298 K, HypSpec), the “log β 130 overall stability constant (Ga^3+)” value is on record as 28.37 (7) and the “log β 133 overall stability constant (Ga^3+)” value is recorded as 49.7 (4). Further, in series [1] (298 K), the “logK11 apparent formation constant” value is 7.38 (3); the “logK12 apparent formation constant (Ga^3+, M:L 1:2)” value is 14.35 (3); the “logK13 apparent formation constant (Ga^3+, M:L 1:3)” value is 19.1 (4). In series [1], the “Prevailing Species (pH 5.5)” value was “[Ga(HL)3]”, the “Prevailing Species (pH 7.4)” value was “[Ga(L)3]^3−” and the “pGa (−log[Ga^3+]free)” value was determined as 19.0. In series [2] (298 K), the “logβ011 overall protonation constant” value is 10.212 (2) and the “logβ012 overall protonation constant” value was 18.509 (3). Further, in series [2] (setting [9]), the pKa1 was 8.297 (5) and the pKa2 is listed as 10.212 (2) *. Also, in series [3], the “KK (%) amount of diketo form” value is given as 4% and the “KE (%) amount of keto–enol form” value was 96%. For the same molecule, in series [4], the “Stability: percentage of the residual ligand after 4 h” value was 77% and the “Stability ranking (residual ligand after 4 h)” value was 3.
